Laboratory results as given in PMC5007552, “The hVps34‐SGK3 pathway alleviates sustained PI3K/Akt inhibition by stimulating mTORC1 and tumour growth” (The EMBO Journal, 2016).
Where “and” joins values, the source holds several entries; their conditions need not be identical. Equal entries are not always repeated.

System: ZR-75-1 cells
Assay: NanoString human kinome mRNA quantification
Type: cell-based
Conditions: for Normalised counts: single replicates
Source text: Human mRNAs were hybridised to NanoString human kinome and control code sets, then subjected to quantification using NanoString software. […] To permit data compaction, and simple kinome‐wide comparisons, the fold changes are log2 transformed. […] Cell pellets were resuspended at a concentration of ~6,500 cells/μl in RLT buffer (Qiagen). […] For total copy numbers, triplicate normalised count values were averaged, and to calculate fold induction, means were divided by triplicate mean values from matched DMSO controls. P‐values were calculated using unpaired t‐test (GraphPad Prism software) by employing treated and control count data for each kinase mRNA.

Structure (SMILES): NC1(c2ccc(-c3nc4ccn5c(=O)[nH]nc5c4cc3-c3ccccc3)cc2)CCC1 [MK-2206]
- CDK18 normalised counts (replicates) (CDK18 mRNA): 93.28 and 102.4 and 103.9
- CDK19 average normalised counts (CDK19 mRNA): 336.707
- CDK19 normalised counts (replicates) (CDK19 mRNA): 340.52 and 347.39 and 322.21
- CDK20 average normalised counts (CDK20 mRNA): 89.7167
- CDK20 normalised counts (replicates) (CDK20 mRNA): 106.01 and 80.68 and 82.46
- CDKL1 average normalised counts (CDKL1 mRNA): 1
- CDKL1 normalised counts (replicates) (CDKL1 mRNA): 1
- CDKL2 average normalised counts (CDKL2 mRNA): 5.853
- CDKL2 normalised counts (replicates) (CDKL2 mRNA): 6.93 and 5.97 and 4.66
- CDKL3 average normalised counts (CDKL3 mRNA): 93.1667
- CDKL3 normalised counts (replicates) (CDKL3 mRNA): 98.74 and 82.42 and 98.34
- CDKL4 average normalised counts (CDKL4 mRNA): 49.8833
- CDKL4 normalised counts (replicates) (CDKL4 mRNA): 49.65 and 57.23 and 42.77
- CDKL5 average normalised counts (CDKL5 mRNA): 46.4467
- CDKL5 normalised counts (replicates) (CDKL5 mRNA): 46.93 and 52.02 and 40.39
- CHEK1 average normalised counts (CHEK1 mRNA): 416.797
- CHEK1 normalised counts (replicates) (CHEK1 mRNA): 440.51 and 390.82 and 419.06
- CHEK2 average normalised counts (CHEK2 mRNA): 813.71
- CHEK2 normalised counts (replicates) (CHEK2 mRNA): 824.09 and 812.16 and 804.88
- CHUK average normalised counts (CHUK mRNA): 732.773
- CHUK normalised counts (replicates) (CHUK mRNA): 715.01 and 761.78 and 721.53
- CIT average normalised counts (CIT mRNA): 394.403
- CIT normalised counts (replicates) (CIT mRNA): 393.24 and 389.96 and 400.01
- CLK1 average normalised counts (CLK1 mRNA): 994.453
- CLK1 normalised counts (replicates) (CLK1 mRNA): 974.07 and 1043.25 and 966.04
- CLK2 average normalised counts (CLK2 mRNA): 1169.5
- CLK2 normalised counts (replicates) (CLK2 mRNA): 1152.23 and 1182.25 and 1174.03
- CLK3 average normalised counts (CLK3 mRNA): 710.143
- CLK3 normalised counts (replicates) (CLK3 mRNA): 731.38 and 705.31 and 693.74
- CLK4 average normalised counts (CLK4 mRNA): 709.387
- CLK4 normalised counts (replicates) (CLK4 mRNA): 719.56 and 687.07 and 721.53
- COL4A3BP average normalised counts (COL4A3BP mRNA): 420.653
- COL4A3BP normalised counts (replicates) (COL4A3BP mRNA): 415.06 and 433.39 and 413.51
- CPNE3 normalised counts (replicates) (CPNE3 mRNA): 2313.35
- CSF1R average normalised counts (CSF1R mRNA): 1
- CSF1R normalised counts (replicates) (CSF1R mRNA): 1
- CSK average normalised counts (CSK mRNA): 629.517
- CSK normalised counts (replicates) (CSK mRNA): 633.21 and 603.67 and 651.67
- CSNK1A1L average normalised counts (CSNK1A1L mRNA): 2.067
- CSNK1A1L normalised counts (replicates) (CSNK1A1L mRNA): 4.2 and 1 (2×)
- CSNK1A1 average normalised counts (CSNK1A1 mRNA): 854.287
- CSNK1A1 normalised counts (replicates) (CSNK1A1 mRNA): 855.9 and 833.01 and 873.95
- CSNK1D average normalised counts (CSNK1D mRNA): 6324.07
- CSNK1D normalised counts (replicates) (CSNK1D mRNA): 6300.6 and 6273.94 and 6397.68
- CSNK1E average normalised counts (CSNK1E mRNA): 1485.08
- CSNK1E normalised counts (replicates) (CSNK1E mRNA): 1520.36 and 1448.08 and 1486.81
- Average normalised counts (CSNK1G1 mRNA): 1243.9
- Normalised counts (CSNK1G1 mRNA): 1266.76 and 1245.67 and 1219.28
- Average normalised counts (CSNK1G2 mRNA): 674.087
- Normalised counts (CSNK1G2 mRNA): 671.38 and 671.43 and 679.45
- Average normalised counts (CSNK1G3 mRNA): 1032.23
- Normalised counts (CSNK1G3 mRNA): 1024.97 and 1049.33 and 1022.4
- Average normalised counts (CSNK2A1 mRNA): 568.443
- Normalised counts (CSNK2A1 mRNA): 546.86 and 575.87 and 582.6
- Average normalised counts (CSNK2A2 mRNA): 157.413
- Normalised counts (CSNK2A2 mRNA): 146.91 and 157.13 and 168.2
- Average normalised counts (DAPK1 mRNA): 21.41
- Normalised counts (DAPK1 mRNA): 22.38 and 18.13 and 23.72
- Average normalised counts (DAPK2 mRNA): 44.4967
- Normalised counts (DAPK2 mRNA): 37.84 and 52.88 and 42.77
- Average normalised counts (DCLK1 mRNA): 64.6967
- Normalised counts (DCLK1 mRNA): 61.47 and 58.1 and 74.52
- Average normalised counts (DCLK2 mRNA): 1
- Normalised counts (DCLK2 mRNA): 1
- Average normalised counts (DCLK3 mRNA): 1
- Normalised counts (DCLK3 mRNA): 1
- Normalised counts (DDR1 mRNA): 2268.77
- Average normalised counts (DDR2 mRNA): 24.12
- Normalised counts (DDR2 mRNA): 24.2 and 26.82
- Average normalised counts (DMPK mRNA): 79.4267
- Normalised counts (DMPK mRNA): 89.65 and 78.08 and 70.55
- Average normalised counts (DSTYK mRNA): 288.937
- Normalised counts (DSTYK mRNA): 315.98 and 310.3
- Average normalised counts (DYRK1A mRNA): 1263.91
- Normalised counts (DYRK1A mRNA): 1248.58 and 1277.81 and 1265.33
- Average normalised counts (DYRK1B mRNA): 113.827
- Normalised counts (DYRK1B mRNA): 104.19 and 111.96 and 125.33
- Average normalised counts (DYRK2 mRNA): 852.053
- Normalised counts (DYRK2 mRNA): 855.9 and 810.43 and 889.83
- Average normalised counts (DYRK3 mRNA): 83.6267
- Normalised counts (DYRK3 mRNA): 80.56 and 90.24 and 80.08
- Average normalised counts (DYRK4 mRNA): 50.6933
- Normalised counts (DYRK4 mRNA): 52.38 and 53.75 and 45.95
- Average normalised counts (EEF2K mRNA): 449.027
- Normalised counts (EEF2K mRNA): 425.05 and 457.72 and 464.31
- Average normalised counts (EGFR mRNA): 78.07
